In US12595269B2, “Morpholine-like monoamine releasers” (Solvonis Therapeutics Ireland Holdings Limited, priority 2022, dated 2026) one finds fraction unbound data, which are given here for three compounds.

In general, fraction unbound refers to the share of the substance not bound to proteins or other matrix.

The data set in a line: Brain tissue binding (BTB) by equilibrium dialysis, rat brain homogenate. Type of data set: in vitro ADME. To be noted: male, Sprague Dawley, pH 7.4. As for the experimental part:
Methods and Procedure: This study was performed in agreement with the previously described procedures to assure data integrity and adherence to GLP standards. Plasma protein binding and blood tissue binding of test items (0.5 μM) was determined using biological samples from male Sprague Dawley (SD) rats and humans. […] Dexamethasone was used as a control for lung tissue binding. Various biological samples were spiked with test compounds according to the methods that follow.
Preparation of brain homogenate samples: Test items were dissolved in DMSO (or an appropriate solvent) to give a 10 mM solution. Further dilutions, to obtain […] working solutions (WS), were then prepared using 50% acetonitrile in Milli Q water. These 100×WS were used to spike the brain homogenate to obtain a final concentration of 5 μM. From this initial spiking solution, control samples (n=3) referred to as T=0, were immediately extracted by protein precipitation.
An equilibrium dialysis method was performed to determine protein binding in the various biological samples described herein. Materials were prepared and methods were in accordance with the following procedures.
Membranes were prepared for use in the equilibrium dialysis experiment, by soaking in deionized water for at least 60 minutes. After this period, 20% of pure ethanol was added, and the membranes were left in this solution for at least 20 minutes. The membranes were then rinsed in Milli-Q water prior to use. […]
Dialysis buffer was prepared by dissolving Na2HPO4 8.69 g, KH2PO4 1.90 g, and NaCl 4.11 g in 1 L of MilliQ water, and adjusting the pH to 7.4 with H3PO4. […] In order to control the integrity of the membrane after the dialysis process, the presence of protein was assessed in the buffer compartment. […]
Samples were analyzed in a LC-MS/MS system using an analytical method to monitor the compound to internal standard peak area ratios as representative of the compound concentrations. Alternatively, samples were analyzed by RapidFire. […]
The compound `CNC(C)Cc1ccc2c(c1)OCO2` (stereo not drawn) [MDMA, reference compound] gave a fraction unbound at 5 h, 5 µM of about 0.4.
Take `Clc1ccc([C@@]23CN[C@@H](CO2)C3)cc1Cl` (single isomer, unassigned) [518A]: the free fraction (fraction unbound) at 5 h, 5 µM came out at 0.0127.
Next, `Clc1ccc(C23CNC(CO2)C3)cc1Cl` (stereo not drawn) [522A, 1-(3,4-dichlorophenyl)-2-oxa-5-azabicyclo[2.2.1]heptane]: 0.022.
